Results as given in publication PMC3299684, “Two Odorant-Binding Proteins Mediate the Behavioural Response of Aphids to the Alarm Pheromone (E)-ß-farnesene and Structural Analogues” (PLoS ONE, 2012).

Experiments:
[1] = target: T1, OBP7 (Acyrthosiphon pisum, UniProt A0A8R1TDD0); assay: competitive displacement of 1-NPN fluorescence; assay type: binding; details: 50 mM Tris-HCl pH 7.4, 25°C; protein and 1-NPN 2 µM; KD calculated from IC50
T1 construct: gene 100160457; primers encode N-terminus (M)YLSEA, C-terminus EFLPL
T1 sequence (A0A8R1TDD0 31-155): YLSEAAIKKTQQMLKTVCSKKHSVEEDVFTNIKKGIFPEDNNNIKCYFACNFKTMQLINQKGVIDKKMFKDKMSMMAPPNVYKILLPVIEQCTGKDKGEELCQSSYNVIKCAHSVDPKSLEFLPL

[2] = target: T2, OBP3 (Acyrthosiphon pisum, UniProt A0A8R1XHB4); assay: competitive displacement of 1-NPN fluorescence; assay type: binding; details: 50 mM Tris-HCl pH 7.4, 25°C; protein and 1-NPN 2 µM; KD calculated from IC50
T2 construct: construct not detailed here
T2 sequence (A0A8R1XHB4 24-141 limits assumed): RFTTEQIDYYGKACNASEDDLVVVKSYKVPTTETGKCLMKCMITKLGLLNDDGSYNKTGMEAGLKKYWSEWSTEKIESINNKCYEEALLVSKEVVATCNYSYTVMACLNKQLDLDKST

[3] = target: T1, OBP7; assay: biochemical; set-up: competitive fluorescence binding assay, displacement of 1-NPN (2 uM) from recombinant OBP (2 uM), pH 7.4; details: for IC50: read-out: [IC]50 OBP7
Experimental: (§1) The probe was excited at 337 nm and emission spectra were recorded between 380 and 450 nm. […] For determining binding constants, the intensity values corresponding to the maximum of fluorescence emission were plotted against free ligand concentrations. The curves were drawn using the Prism software, that allowed calculation of the dissociation constants and the stoichiometry of binding, assuming that the protein was 100% active. […] Supplementary file pone.0032759.s002.doc: Table S1 Binding properties of the ligands utilised in ligand binding assays and behaviour experiments. For each protein, [IC]50 reports the concentration of ligand that halves the initial fluorescence intensity (both protein and 1-NPN were used at the concentration of 2 µM). Dissociation constants are calculated as reported in the Materials and Methods section. The structures of “CAU” ligands are reported in Table 1, those of “LIG” chemicals in Figure 3. […] (DOC) Click here for additional data file.

[4] = target: T2, OBP3; set-up: competitive fluorescence binding assay, displacement of 1-NPN (2 uM) from recombinant OBP (2 uM), pH 7.4; details: binder
Experimental: as §1

[5] = target: T3, OBP6 (Acyrthosiphon pisum, UniProt A0A8R1TDN2); assay: biochemical; set-up: competitive fluorescence binding assay, displacement of 1-NPN (2 uM) from recombinant OBP (2 uM), pH 7.4
T3 sequence (A0A8R1TDN2 1-160): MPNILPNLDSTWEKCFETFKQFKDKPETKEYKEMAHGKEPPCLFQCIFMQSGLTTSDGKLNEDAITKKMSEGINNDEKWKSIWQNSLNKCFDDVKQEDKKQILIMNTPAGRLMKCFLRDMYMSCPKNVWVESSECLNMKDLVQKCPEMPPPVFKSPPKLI
Experimental: The probe was excited at 337 nm and emission spectra were recorded between 380 and 450 nm. […] For determining binding constants, the intensity values corresponding to the maximum of fluorescence emission were plotted against free ligand concentrations. The curves were drawn using the Prism software, that allowed calculation of the dissociation constants and the stoichiometry of binding, assuming that the protein was 100% active. […] Supplementary file pone.0032759.s002.doc: Table S1 Binding properties of the ligands utilised in ligand binding assays and behaviour experiments. For each protein, [IC]50 reports the concentration of ligand that halves the initial fluorescence intensity (both protein and 1-NPN were used at the concentration of 2 µM). Dissociation constants are calculated as reported in the Materials and Methods section. The structures of “CAU” ligands are reported in Table 1, those of “LIG” chemicals in Figure 3. Blank cells indicate values of [IC]50 higher than 30 µM. For these compounds dissociation constants have not been calculated. (DOC) Click here for additional data file.

C=CC(=C)CC/C=C(\C)CCC=C(C)C [(E)-ß-farnesene]
KD [1]: including (E)-ß-farnesene and structurally similar molecules, bind only OBP3 and/or OBP7 | KD [2]: including (E)-ß-farnesene and structurally similar molecules, bind only OBP3 and/or OBP7

CC(=O)OC/C=C(\C)CCC=C(C)C [LIG-7]
Kd [3]: 9.3 µM | IC50 [3]: 18 µM

CC(C)CCOC(=O)CCCc1ccccc1 [LIG-8]
Kd [4]: 10.7 µM | IC50 ([4]; read-out: [IC]50 OBP3): 14 µM | Kd [3]: 2.8 µM | IC50 [3]: 5.5 µM

CC(C)CCCC(C)CCOC(=O)c1ccccc1 (centres unmarked) [LIG-4]
Kd [5]: 13.9 µM | IC50 ([5]; read-out: [IC]50 OBP6): 16.1 µM | IC50 [3]: 2.5 µM
